Laboratory results published in ChEMBL document CHEMBL1201862, “PubChem BioAssay data set” (2004).
Activity calls are given as the source filed them.

What was measured:
[1] = Cytotoxicity screening for potential Inhibitors of Bacterial Capsule Biogenesis. [Related pubchem assays (depositor defined):AID488970]; type: functional
[2] = molecular target: T1, Voltage-dependent T-type calcium channel subunit alpha-1H (Homo sapiens, UniProt O95180); assay: Inhibitors of T-Type Calcium Channels. [Related pubchem assays (depositor defined):AID449739, AID463087, AID489005, AID493041, AID504579, AID504584, AID504619, AID504628]; type: functional
[3] = molecular target: UDP-galactopyranose mutase (Mycobacterium tuberculosis, UniProt P9WIQ1); assay: Inhibitors of Mycobacterium tuberculosis UDP-galactopyranose mutase (UGM) enzyme Measured in Biochemical System Using Plate Reader - 2105-02_Inhibitor_Dose_CherryPick_Activity. [Related pubchem assays (depositor defined):AID504439]
HeLa = assay: viability loss in HeLa cells – cell-based, 24 h, cherry-picked samples, cytotoxicity control, dose response (AID 504726); type: functional; settings: Homo sapiens;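 also: potency for cytotoxicity as loss of luminescence signal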
[4] = molecular target: T2, Endoribonuclease toxin MazF (Escherichia coli K-12, UniProt P0AE70); assay: substrate-only fluorescence increase artefacts – biochemical, single-stranded RNase substrate, counter-screen for MazEF activator project, dose response (AID 588502); type: functional
T2 sequence (P0AE70 whole entry): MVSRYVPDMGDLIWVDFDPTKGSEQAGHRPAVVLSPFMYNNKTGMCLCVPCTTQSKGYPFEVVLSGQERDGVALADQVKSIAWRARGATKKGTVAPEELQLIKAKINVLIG

[5] = molecular target: T1, Voltage-dependent T-type calcium channel subunit alpha-1H; type: functional
ORF 73 = ORF 73 (Human herpesvirus 8, UniProt O40947); assay: KSHV LANA DNA-binding disruption – biochemical, fluorescence polarization, cherry-picked samples, dose response (AID 504725); design: species or system Human gammaherpesvirus 8;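 also: fluorescence polarization of a labeled DNA duplex reporting LANA DNA binding; potency is for inhibitors that block LANA binding to the DNA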
[6] = molecular target: T2, Endoribonuclease toxin MazF; assay: activation of MazEF endoribonuclease cleavage – biochemical, fluorescence, single-stranded RNA substrate, uHTS hits, dose response (AID 588481); type: functional
[7] = molecular target: T3, Nucleotide-binding oligomerization domain-containing protein 1 (Homo sapiens, UniProt Q9Y239); assay: blockers of NOD1 pathway activity – revised, SAR follow-up (AID 2333); type: functional
T3 sequence (Q9Y239 whole entry): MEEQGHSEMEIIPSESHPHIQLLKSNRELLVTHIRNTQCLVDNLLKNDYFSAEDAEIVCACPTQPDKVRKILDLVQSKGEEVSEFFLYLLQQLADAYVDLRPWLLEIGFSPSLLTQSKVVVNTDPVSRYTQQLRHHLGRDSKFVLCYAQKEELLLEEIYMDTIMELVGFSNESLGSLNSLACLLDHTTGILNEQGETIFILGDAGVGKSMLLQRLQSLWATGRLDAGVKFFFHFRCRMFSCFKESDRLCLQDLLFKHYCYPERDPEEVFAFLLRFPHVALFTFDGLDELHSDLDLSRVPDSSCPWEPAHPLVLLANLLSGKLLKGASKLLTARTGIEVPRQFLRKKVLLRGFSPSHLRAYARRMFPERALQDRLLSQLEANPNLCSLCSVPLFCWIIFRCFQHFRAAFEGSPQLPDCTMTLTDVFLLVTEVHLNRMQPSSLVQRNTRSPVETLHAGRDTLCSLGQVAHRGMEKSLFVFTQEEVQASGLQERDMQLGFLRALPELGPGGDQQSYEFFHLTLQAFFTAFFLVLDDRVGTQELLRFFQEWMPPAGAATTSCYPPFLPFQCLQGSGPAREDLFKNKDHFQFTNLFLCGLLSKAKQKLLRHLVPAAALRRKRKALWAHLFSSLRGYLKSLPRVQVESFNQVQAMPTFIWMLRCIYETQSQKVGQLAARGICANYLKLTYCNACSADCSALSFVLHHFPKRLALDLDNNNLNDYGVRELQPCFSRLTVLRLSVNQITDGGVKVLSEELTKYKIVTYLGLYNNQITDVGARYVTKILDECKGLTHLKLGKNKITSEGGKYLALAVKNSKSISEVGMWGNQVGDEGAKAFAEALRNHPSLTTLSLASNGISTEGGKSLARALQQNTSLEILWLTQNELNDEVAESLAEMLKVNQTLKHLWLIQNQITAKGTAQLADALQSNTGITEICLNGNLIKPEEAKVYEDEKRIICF

[8] = molecular target: T3, Nucleotide-binding oligomerization domain-containing protein 1; assay: SAR analysis of NF-kappaB dependent luciferase using DAP as an inducer - Set 2. [Related pubchem assays (depositor defined):AID1566, AID1575, AID1578, AID1579, AID1849, AID1852, AID2264]; type: functional
HEK293 = assay: cells; settings: Homo sapiens;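 also: cells exposed to compound for 14 hours overnight before viability readout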
[9] = molecular target: Nucleotide-binding oligomerization domain-containing protein 2 (Homo sapiens, UniProt Q9HC29); assay: PubChem AID 2334; type: functional
Interleukin-8 [10] = molecular target: T4, Interleukin-8 (Homo sapiens, UniProt P10145); assay: SAR analysis of Tumor necrosis factor alpha (TNF-alpha) induced IL-8 secretion in MCF-7/NOD1 cells - Set 2. [Related pubchem assays (depositor defined):AID1575, AID2250, AID2260]; type: functional, cell-based
T4 sequence (P10145 whole entry): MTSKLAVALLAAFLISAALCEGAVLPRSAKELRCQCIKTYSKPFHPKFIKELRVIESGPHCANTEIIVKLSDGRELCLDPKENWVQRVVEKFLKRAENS

Interleukin-8 [11] = molecular target: T4, Interleukin-8; assay: SAR analysis of GM-Tri-DAP induced IL-8 secretion in MCF-7/NOD1 cells - Set 2. [Related pubchem assays (depositor defined):AID1575, AID1578, AID2333]; type: functional, cell-based
Tumor necrosis factor = Tumor necrosis factor (Homo sapiens, UniProt P01375); assay: analog potency on TNFa NF-kB signaling – cell-based, revised, SAR follow-up (AID 2337); type: functional
[12] = HEK-293T viability loss after treatment – luminescence, T-cell screen hits, cytotoxicity control for TCR NF-kB inhibitor project, dose response (AID 489026); type: functional, cell-based;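 also: cells exposed to compound about 14 hours before the viability readout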
[13] = molecular target: Scavenger receptor class B member 1 (Mus musculus, UniProt Q61009); assay: mouse SR-BI DiI-HDL uptake blockers – ldlA[mSR-BI] cells, fluorescence, cherry pick, dose response (AID 493194); type: functional, cell-based;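 also: cellular uptake of fluorescent DiI-labeled HDL measured as cell fluorescence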
Estrogen receptor = molecular target: T5, Estrogen receptor (Homo sapiens, UniProt P03372);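 also: potency for inhibiting coactivator peptide recruitment to the receptor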
T5 sequence (P03372 whole entry): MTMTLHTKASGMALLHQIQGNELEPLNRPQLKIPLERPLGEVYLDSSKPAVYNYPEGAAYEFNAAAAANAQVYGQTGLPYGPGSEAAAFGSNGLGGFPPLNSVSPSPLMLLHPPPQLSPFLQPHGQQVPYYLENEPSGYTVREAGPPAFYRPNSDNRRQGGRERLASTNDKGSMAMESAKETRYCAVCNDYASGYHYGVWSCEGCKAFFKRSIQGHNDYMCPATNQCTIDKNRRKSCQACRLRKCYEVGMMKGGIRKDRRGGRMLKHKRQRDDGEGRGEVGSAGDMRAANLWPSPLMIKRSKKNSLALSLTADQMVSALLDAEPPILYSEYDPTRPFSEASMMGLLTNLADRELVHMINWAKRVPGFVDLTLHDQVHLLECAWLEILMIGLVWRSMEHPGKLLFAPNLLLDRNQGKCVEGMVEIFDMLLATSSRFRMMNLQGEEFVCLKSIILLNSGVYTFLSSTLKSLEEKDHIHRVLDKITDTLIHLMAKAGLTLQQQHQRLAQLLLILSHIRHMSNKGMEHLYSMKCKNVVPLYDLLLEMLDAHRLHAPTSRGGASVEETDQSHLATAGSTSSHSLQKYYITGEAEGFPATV

Estrogen receptor beta [14] = molecular target: T6, Estrogen receptor beta (Homo sapiens, UniProt Q92731); assay: blockers of SRC-3 recruitment to ERβ – biochemical, ELISA, streptavidin-HRP readout, orthogonal assay, confirmation (AID 1060)
Estrogen receptor beta [15] = molecular target: T6, Estrogen receptor beta
[16] = molecular target: Polyadenylate-binding protein 1 (Homo sapiens, UniProt P11940); assay: blockers of PABP interaction with poly(A) – biochemical, fluorescence polarization, […] (AID 2014)
[17] = molecular target: Eukaryotic translation initiation factor 4H (Homo sapiens, UniProt Q15056); assay: eIF4H binding inhibition – biochemical, uHTS, fluorescence polarization, translation initiation inhibitor project, primary screen (AID 2012)
[18] = molecular target: Cyclin-dependent kinase 5/CDK5 activator 1 (Homo sapiens, UniProt Q00535); assay: blockade of human CDK5 activity – biochemical, cherry-picked samples, set 2, dose response (AID 504545)
Keap1/Nrf2 = Keap1/Nrf2 (Homo sapiens, UniProt Q14145); assay: disruptors of Keap1 binding to Nrf2 peptide – biochemical, fluorescence polarization, cherry-picked samples, dose response (AID 588683)
Nonstructural protein 1 = Nonstructural protein 1 (Influenza A virus, UniProt Q194T2); type: functional, Influenza A virus (A/California/07/2009(H1N1))
[19] = molecular target: Cystic fibrosis transmembrane conductance regulator/Golgi-associated PDZ and coiled-coil motif-containing protein (Homo sapiens, UniProt P13569+Q9HD26); assay: potency against CAL PDZ-peptide interaction – biochemical, fluorescence polarization, Cerulean-tagged CAL PDZ, cherry-picks, dose response (AID 504773)
[20] = molecular target: Signal transducer and activator of transcription 3 (Homo sapiens, UniProt P40763); assay: STAT3 activation with BCL3 mRNA and toxicity – cell-based, […], BCL3 qPCR, cytotoxicity, late-stage follow-up, panel member STAT3 Activation (AID 2049)
[21] = molecular target: T7, Kappa-type opioid receptor (Homo sapiens, UniProt P41145); assay: SAR analysis of small molecule antagonists of the kappa opioid receptor via a luminescent beta-arrestin assay - Set 6. [Related pubchem assays (depositor defined):AID1777, AID1778, AID1785, AID1786, AID1966, AID2133, AID2136, AID2285]; type: functional
[22] = molecular target: T7, Kappa-type opioid receptor; assay: SAR analysis of small molecule antagonists of the kappa opioid receptor via a luminescent beta-arrestin assay - Set 4. [Related pubchem assays (depositor defined):AID1777, AID1778, AID1785, AID1786, AID1966, AID2133, AID2136, AID2285]; type: functional
[23] = molecular target: Delta-type opioid receptor (Homo sapiens, UniProt P41143); assay: SAR Analysis of Antagonists of the DOR Receptor using an Image-Based Assay - Set 3. [Related pubchem assays (depositor defined):AID1777, AID1785]; type: functional;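 also: U2OS cells expressing DOR1 and beta-arrestin GFP stimulated with 100 nM SNC80; imaging of GFP-tagged beta-arrestin moving into spots after receptor activation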
[24] = molecular target: T7, Kappa-type opioid receptor; assay: SAR analysis of Antagonists of the Kappa Opioid Receptor (KOR) using an Image-Based Assay - Set 4. [Related pubchem assays (depositor defined):AID1777, AID1785]; type: functional
Mu-type opioid receptor = Mu-type opioid receptor (Homo sapiens, UniProt P35372); assay: SAR Analysis of Antagonists of the MOR Receptor using an Image-Based Assay - Set 3. [Related pubchem assays (depositor defined):AID1777, AID1785, AID1786, AID1966, AID2133, AID2136, AID2284, AID2285, AID2420]; type: functional

T7 sequence (P41145 whole entry): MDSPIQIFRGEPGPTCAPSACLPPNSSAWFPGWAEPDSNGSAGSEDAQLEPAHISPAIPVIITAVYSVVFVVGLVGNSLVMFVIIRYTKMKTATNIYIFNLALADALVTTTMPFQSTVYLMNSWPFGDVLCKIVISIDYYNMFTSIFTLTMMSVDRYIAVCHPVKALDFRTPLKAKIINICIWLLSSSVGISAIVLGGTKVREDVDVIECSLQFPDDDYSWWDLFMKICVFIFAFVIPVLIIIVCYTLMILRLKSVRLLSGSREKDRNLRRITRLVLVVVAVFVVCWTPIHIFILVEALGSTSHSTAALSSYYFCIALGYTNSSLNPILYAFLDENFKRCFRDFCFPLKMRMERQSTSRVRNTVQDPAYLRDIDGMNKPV
Sequence of ORF 73 (O40947 whole entry): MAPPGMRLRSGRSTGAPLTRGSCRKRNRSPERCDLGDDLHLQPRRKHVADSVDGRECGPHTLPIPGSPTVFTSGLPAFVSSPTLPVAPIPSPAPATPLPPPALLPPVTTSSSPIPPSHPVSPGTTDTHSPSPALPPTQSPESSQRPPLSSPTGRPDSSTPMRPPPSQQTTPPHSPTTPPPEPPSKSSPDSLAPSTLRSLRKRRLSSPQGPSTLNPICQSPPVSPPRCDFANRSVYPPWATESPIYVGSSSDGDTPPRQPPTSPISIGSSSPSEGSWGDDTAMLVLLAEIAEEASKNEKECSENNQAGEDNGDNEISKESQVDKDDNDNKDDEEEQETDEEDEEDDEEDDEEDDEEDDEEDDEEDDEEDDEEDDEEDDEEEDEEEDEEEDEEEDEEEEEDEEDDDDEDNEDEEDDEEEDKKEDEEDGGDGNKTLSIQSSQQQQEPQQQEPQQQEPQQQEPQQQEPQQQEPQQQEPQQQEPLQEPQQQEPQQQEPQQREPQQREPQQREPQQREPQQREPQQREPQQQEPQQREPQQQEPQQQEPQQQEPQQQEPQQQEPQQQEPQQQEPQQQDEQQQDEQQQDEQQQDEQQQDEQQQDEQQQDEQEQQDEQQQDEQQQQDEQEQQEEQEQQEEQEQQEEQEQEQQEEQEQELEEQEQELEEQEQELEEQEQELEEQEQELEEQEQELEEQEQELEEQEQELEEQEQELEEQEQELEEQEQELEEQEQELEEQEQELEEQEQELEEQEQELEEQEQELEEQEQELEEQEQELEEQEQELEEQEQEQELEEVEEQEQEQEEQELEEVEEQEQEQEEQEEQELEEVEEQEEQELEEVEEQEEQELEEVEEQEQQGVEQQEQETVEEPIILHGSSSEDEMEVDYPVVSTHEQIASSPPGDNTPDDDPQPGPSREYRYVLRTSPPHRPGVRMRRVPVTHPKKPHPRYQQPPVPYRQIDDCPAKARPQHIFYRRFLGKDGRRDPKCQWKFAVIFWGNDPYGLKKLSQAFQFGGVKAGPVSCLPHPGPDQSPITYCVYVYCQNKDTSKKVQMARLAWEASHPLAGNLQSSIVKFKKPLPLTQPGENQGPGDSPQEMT
T1 sequence (O95180 whole entry): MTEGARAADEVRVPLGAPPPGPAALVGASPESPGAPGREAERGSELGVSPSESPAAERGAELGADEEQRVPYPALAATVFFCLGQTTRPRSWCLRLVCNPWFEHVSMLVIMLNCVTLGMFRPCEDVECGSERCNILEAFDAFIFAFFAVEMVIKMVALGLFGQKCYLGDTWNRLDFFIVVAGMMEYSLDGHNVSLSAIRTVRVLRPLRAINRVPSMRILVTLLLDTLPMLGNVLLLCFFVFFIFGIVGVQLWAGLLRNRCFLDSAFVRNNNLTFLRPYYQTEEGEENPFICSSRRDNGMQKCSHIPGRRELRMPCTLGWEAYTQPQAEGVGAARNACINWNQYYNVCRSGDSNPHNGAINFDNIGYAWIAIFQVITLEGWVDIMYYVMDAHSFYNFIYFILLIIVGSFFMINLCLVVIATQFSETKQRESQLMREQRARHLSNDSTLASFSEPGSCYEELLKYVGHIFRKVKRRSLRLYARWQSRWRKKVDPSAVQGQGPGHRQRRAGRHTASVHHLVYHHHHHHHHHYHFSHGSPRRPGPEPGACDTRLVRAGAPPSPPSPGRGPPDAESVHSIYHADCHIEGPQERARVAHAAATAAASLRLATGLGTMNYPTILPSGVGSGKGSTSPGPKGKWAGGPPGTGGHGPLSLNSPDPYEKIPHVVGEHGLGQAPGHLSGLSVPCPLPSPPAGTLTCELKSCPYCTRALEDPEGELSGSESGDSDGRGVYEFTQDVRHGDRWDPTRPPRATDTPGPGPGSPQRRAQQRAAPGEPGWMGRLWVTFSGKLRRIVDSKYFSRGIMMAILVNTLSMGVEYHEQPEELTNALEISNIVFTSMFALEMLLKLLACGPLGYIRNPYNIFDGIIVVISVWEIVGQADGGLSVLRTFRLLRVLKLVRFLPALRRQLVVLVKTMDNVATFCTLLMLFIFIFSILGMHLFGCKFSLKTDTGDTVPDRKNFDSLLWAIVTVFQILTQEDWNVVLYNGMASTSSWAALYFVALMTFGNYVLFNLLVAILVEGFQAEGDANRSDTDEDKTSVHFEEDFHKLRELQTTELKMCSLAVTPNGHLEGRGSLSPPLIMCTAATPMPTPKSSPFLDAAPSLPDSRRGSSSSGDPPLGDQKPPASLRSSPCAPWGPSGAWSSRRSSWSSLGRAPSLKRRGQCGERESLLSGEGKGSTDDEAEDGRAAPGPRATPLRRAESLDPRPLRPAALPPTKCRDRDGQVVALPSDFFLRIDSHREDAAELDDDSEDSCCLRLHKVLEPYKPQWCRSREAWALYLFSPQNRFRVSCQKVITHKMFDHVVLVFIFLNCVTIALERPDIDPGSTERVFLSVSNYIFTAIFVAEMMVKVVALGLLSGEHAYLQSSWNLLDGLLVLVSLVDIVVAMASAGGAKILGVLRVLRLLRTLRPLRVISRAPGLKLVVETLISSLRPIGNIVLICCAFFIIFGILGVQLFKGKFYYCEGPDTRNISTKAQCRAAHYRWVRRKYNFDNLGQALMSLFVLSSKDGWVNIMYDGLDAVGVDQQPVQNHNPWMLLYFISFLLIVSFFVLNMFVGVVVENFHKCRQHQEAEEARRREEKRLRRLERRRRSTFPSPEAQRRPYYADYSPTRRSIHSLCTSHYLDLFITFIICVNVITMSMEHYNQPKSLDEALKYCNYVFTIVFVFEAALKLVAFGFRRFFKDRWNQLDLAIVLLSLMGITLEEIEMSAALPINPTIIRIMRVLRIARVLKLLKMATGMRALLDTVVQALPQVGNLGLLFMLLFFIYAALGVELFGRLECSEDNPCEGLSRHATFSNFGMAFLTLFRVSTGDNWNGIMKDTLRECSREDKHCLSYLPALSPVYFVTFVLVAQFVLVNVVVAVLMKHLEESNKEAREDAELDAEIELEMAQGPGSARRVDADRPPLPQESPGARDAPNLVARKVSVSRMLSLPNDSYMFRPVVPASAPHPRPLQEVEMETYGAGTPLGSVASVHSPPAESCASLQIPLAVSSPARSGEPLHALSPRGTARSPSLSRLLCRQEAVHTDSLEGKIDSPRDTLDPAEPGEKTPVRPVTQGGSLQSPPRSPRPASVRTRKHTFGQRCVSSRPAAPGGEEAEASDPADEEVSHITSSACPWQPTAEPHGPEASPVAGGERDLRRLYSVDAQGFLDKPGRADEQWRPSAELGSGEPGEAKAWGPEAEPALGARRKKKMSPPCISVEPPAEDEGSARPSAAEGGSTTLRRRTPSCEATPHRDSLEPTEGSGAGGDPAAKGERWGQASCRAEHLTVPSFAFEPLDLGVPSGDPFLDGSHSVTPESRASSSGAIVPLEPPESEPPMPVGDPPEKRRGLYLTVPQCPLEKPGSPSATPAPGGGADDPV
Sequence of UDP-galactopyranose mutase (P9WIQ1 whole entry): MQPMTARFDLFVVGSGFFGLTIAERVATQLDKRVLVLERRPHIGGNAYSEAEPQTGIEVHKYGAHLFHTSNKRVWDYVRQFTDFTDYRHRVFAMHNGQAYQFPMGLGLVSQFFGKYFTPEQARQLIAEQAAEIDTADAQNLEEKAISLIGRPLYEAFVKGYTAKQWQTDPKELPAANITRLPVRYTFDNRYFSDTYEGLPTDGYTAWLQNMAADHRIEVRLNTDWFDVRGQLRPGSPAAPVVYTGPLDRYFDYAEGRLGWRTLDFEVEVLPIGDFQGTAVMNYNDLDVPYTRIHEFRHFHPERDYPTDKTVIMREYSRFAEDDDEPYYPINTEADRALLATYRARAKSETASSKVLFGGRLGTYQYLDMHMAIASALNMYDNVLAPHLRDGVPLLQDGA
T6 sequence (Q92731 whole entry): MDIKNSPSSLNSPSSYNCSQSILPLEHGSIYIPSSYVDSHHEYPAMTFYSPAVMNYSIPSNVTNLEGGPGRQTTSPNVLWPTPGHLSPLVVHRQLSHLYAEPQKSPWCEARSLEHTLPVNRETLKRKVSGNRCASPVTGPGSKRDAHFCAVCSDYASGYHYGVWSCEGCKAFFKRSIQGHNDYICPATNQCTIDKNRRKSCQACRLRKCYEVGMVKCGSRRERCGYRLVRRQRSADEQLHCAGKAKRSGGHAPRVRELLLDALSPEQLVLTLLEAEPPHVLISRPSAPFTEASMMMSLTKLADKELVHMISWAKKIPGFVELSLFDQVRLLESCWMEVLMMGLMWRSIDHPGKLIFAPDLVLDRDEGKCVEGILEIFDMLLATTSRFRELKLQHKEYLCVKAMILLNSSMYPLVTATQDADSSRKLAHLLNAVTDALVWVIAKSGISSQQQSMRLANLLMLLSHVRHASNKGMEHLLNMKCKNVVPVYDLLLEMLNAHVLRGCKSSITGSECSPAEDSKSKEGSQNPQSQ
Sequence of Nonstructural protein 1 (Q194T2 whole entry): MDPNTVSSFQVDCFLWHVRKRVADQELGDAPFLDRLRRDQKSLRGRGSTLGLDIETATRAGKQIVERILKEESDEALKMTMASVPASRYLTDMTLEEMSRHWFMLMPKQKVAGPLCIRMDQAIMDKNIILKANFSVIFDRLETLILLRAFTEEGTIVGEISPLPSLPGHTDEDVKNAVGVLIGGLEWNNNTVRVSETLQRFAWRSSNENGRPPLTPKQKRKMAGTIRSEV

**Q.** For O=C(NCc1cc([N+](=O)[O-])ccc1O)c1cccnc1Sc1ccccc1, which CC50 [1] is on record?
**A.** > 100 µM (active)

**Q.** What does the source list for Nc1c(C(=O)Nc2ccccc2F)sc2nc(Cc3ccccc3)cc(C(F)(F)F)c12?
**A.** EC50 [2]: 1.9 µM (active); AC50 [3]: 98.6 µM (active); AC50 (HeLa): 95.9 µM (active); EC50 [4]: > 99 µM (inactive); EC50 [5]: 2.71 µM (active); AC50 (ORF 73): 16.1 µM (active); EC50 [6]: 17.4 µM (active)

**Q.** What does the source list for Nc1nc2ccccc2n1CCOc1ccc(Cl)cc1?
**A.** IC50 [7]: 12.7 µM (active); IC50 [8]: > 25 µM (inactive); IC50 (HEK293): > 20 µM (inactive); IC50 [9]: > 20 µM (inactive); IC50 (Interleukin-8 [10]): > 25 µM (inactive); IC50 (Interleukin-8 [11]): 8.6 µM (active); IC50 (Tumor necrosis factor): > 20 µM (inactive)

**Q.** Which IC50 [12] does the source give for Cc1c(C(=O)OCc2ccccc2)[nH]c2c1C(=O)CC(c1ccco1)C2 (stereo not given) here?
**A.** > 80 µM (inactive)

**Q.** What about the AC50 [13] of the same compound?
**A.** 0.258 µM (active)

**Q.** What about the IC50 (Estrogen receptor) of the same compound?
**A.** 23 µM (active)

**Q.** And the IC50 (Estrogen receptor beta [14])?
**A.** 9.51 µM (not active)

**Q.** What about the IC50 (Estrogen receptor beta [15]) of the same compound?
**A.** 15.1 µM (active)

**Q.** Which results are given for CCOc1ccc2nc(SCC(=O)NC(=O)NCc3ccco3)[nH]c2c1?
**A.** IC50 [16]: 62.3 µM (active); IC50 [17]: 13.3 µM (active)

**Q.** With COc1ccc2nc3c(cc2c1)c(NC(=O)C1CCCO1)nn3CC(C)C (stereo not given) as the compound, how does the AC50 [18] read?
**A.** 31.2 µM (active)

**Q.** Which results are given for CCNc1ccc2noc3c2c1C(=O)c1ccccc1-3?
**A.** AC50 [3]: 0.609 µM (active); AC50 (HeLa): 42.9 µM (active); AC50 (Keap1/Nrf2): 0.866 µM (active); IC50 (Nonstructural protein 1): 62 µM (active); AC50 (ORF 73): 1.03 µM (active); AC50 [19]: 4.08 µM (active)

**Q.** For COc1cc(NC(=O)c2cc(C)on2)c(OC)cc1Cl, which EC50 [20] is on record?
**A.** 6.98 µM (active)

**Q.** With CC(C)N(CCNC(=O)c1ccc(CNS(=O)(=O)c2ccc(-c3ccccc3)cc2)cc1)Cc1ccccc1 as the compound, how does the IC50 [21] read?
**A.** > 20 µM (inactive)

**Q.** What about the IC50 [22] of the same compound?
**A.** 1.33 µM (active)

**Q.** And the IC50 [23]?
**A.** > 32 µM (inactive)

**Q.** What about the IC50 [24] of the same compound?
**A.** 0.432 µM (active)

**Q.** And the IC50 (Mu-type opioid receptor)?
**A.** > 32 µM (inactive)
